# From BindingDB's records for doi:10.1006/bbrc.1993.2130 (National Children's Medical Research Center, 1993)
# Target: T1, Alpha-1A adrenergic receptor (Homo sapiens, UniProt P35348)
# T1 sequence (P35348 whole entry): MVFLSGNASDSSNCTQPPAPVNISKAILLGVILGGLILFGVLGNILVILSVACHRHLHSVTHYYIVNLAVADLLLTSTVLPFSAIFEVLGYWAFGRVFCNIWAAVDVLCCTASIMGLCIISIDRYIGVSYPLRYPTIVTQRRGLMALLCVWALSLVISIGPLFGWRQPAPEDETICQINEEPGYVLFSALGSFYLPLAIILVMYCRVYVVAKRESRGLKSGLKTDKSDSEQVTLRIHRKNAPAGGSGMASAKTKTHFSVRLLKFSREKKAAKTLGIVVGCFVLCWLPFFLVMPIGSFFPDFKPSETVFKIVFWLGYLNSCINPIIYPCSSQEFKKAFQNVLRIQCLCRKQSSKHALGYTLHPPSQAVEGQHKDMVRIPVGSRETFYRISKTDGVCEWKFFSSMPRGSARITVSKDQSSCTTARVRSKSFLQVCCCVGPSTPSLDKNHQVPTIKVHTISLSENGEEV
row,SMILES,Ki
1,COc1ccc(OC)c(C(O)C(C)N)c1 (stereo not drawn),> 10000 nM
2,COc1cccc(OC)c1OCCNCC1Oc2ccccc2OC1c1ccccc1 (stereo not drawn) [NSC_185453],0.23 nM
3,COc1ccccc1N1CCN(CCCNc2c(C)c(=O)n(C)c(=O)n2C)CC1 [Urapidil-5-methyl],4.2 nM
